Results published in patent publication US20250019387A1 (Frontier Medicines Corporation, priority 0001, published 2025).
pIC50: −log10 of the molar value.

molecular target: KRAS G12C and cRAF (Ras-binding domain) interaction (Homo sapiens (Human), UniProt P01116, C118S/C51S/C80L/G12C); experiment: Inhibition of KRAS G12C and cRAF binding (AlphaScreen); settings: GMPPNP-loaded KRAS G12C, 19-20 hours incubation with compound; read-out: IC50 (Inhibition of KRAS G12C and cRAF Binding)
Method in brief: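 IC50 values come from 4-parameter nonlinear regression of AlphaScreen signal (680 nm excitation, 570 nm emission). Compound plates sat 19-20 h at room temperature before RBD and donor/acceptor beads were added in Hepes pH 7.4 buffer with 150 mM NaCl, 5 mM MgCl2, 2% DMSO for 60-90 min; biotin-AviTag-GST replaced RBD to flag assay-technology interferers.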

Sequence of KRAS G12C and cRAF (Ras-binding domain) interaction (P01116 other isoform, or with tags, fused parts or gaps G12C/C51S/C80L/C118S): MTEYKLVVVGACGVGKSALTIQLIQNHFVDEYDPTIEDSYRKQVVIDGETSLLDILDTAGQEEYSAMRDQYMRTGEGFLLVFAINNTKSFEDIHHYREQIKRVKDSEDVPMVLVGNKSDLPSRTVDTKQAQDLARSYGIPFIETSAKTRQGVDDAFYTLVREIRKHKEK

| SMILES | pIC50 |
| --- | --- |
| CC(C)c1noc(/C=C/C(=O)N2CC[C@@H](N(C)c3nc(OC[C@@]45CCCN4C[C@H](F)C5)nc4c3CCN(c3cccc5ccc(F)c(Cl)c35)C4)C2)n1 [Example 99, (E)-1-((R)-3-((7-(8-chloro-7-fluoronaphthalen-1-yl)-2-(((2R,7aS)-2-fluorohexahydro-1H-pyrrolizin-7a-yl)methoxy)-5,6,7,8-tetrahydropyrido[3,4-d]pyrimidin-4-yl)(methyl)amino)pyrrolidin-1-yl)-3-(3-isopropyl-1,2,4-oxadiazol-5-yl)prop-2-en-1-one] | 7.00 to 8.00 |
| C#Cc1c(F)ccc2cccc(-c3ncc4c(N(C)[C@@H]5CCN(C(=O)/C=C/c6nc(C)ncc6F)C5)nc(OC[C@@]56CCCN5C[C@H](F)C6)nc4c3F)c12 [Example 301, (E)-1-((R)-3-((7-(8-ethynyl-7-fluoronaphthalen-1-yl)-8-fluoro-2-(((2R,7aS)-2-fluorohexahydro-1H-pyrrolizin-7a-yl)methoxy)pyrido[4,3-d]pyrimidin-4-yl)(methyl)amino)pyrrolidin-1-yl)-3-(5-fluoro-2-methylpyrimidin-4-yl)prop-2-en-1-one] | 7.00 to 8.00 |
| CC(C)c1noc(/C=C/C(=O)N2CC[C@@H](N(C)c3nc(OCC45CCCN4CCC5)nc4c(F)c(-c5cccc6ccc(F)c(Cl)c56)ncc34)C2)n1 [Example 85, (R,E)-1-(3-((7-(8-chloro-7-fluoronaphthalen-1-yl)-8-fluoro-2-((hexahydro-1H-pyrrolizin-7a-yl)methoxy)pyrido[4,3-d]pyrimidin-4-yl)(methyl)amino)pyrrolidin-1-yl)-3-(3-isopropyl-1,2,4-oxadiazol-5-yl)prop-2-en-1-one] | > 8.00 |
| C#Cc1c(F)ccc2cccc(-c3ncc4c(N(C)[C@@H]5CCN(C(=O)/C=C/CN6C7COCC6C7)C5)nc(OC[C@@]56CCCN5C[C@H](F)C6)nc4c3F)c12 [Example 293, (E)-4-(3-oxa-6-azabicyclo[3.1.1]heptan-6-yl)-1-((R)-3-((7-(8-ethynyl-7-fluoronaphthalen-1-yl)-8-fluoro-2-(((2R,7aS)-2-fluorotetrahydro-1H-pyrrolizin-7a(5H)-yl)methoxy)pyrido[4,3-d]pyrimidin-4-yl)(methyl)amino)pyrrolidin-1-yl)but-2-en-1-one] | > 8.00 |
| CN1CC(=CC(=O)N2CC[C@@H](N(C)c3nc(OC[C@@]45CCCN4C[C@H](F)C5)nc4c(F)c(-c5cccc6ccc(F)c(Cl)c56)ncc34)C2)C1 [Example 300, 1-((R)-3-((7-(8-chloro-7-fluoronaphthalen-1-yl)-8-fluoro-2-(((2R,7aS)-2-fluorotetrahydro-1H-pyrrolizin-7a(5H)-yl)methoxy)pyrido[4,3-d]pyrimidin-4-yl)(methyl)amino)pyrrolidin-1-yl)-2-(1-methylazetidin-3-ylidene)ethan-1-one] | 7.00 to 8.00 |
| CN(c1nc(OC[C@@]23CCCN2C[C@H](F)C3)nc2c(F)c(-c3cccc4cccc(Cl)c34)ncc12)[C@@H]1CCN(C(=O)/C=C/[C@H]2CCN2CC2COC2)C1 [Example 224, (E)-1-((R)-3-((7-(8-chloronaphthalen-1-yl)-8-fluoro-2-(((2R,7aS)-2-fluorotetrahydro-1H-pyrrolizin-7a(5H)-yl)methoxy)pyrido[4,3-d]pyrimidin-4-yl)(methyl)amino)pyrrolidin-1-yl)-3-((R)-1-(oxetan-3-ylmethyl)azetidin-2-yl)prop-2-en-1-one] | 7.00 to 8.00 |
| COC(=O)/C=C/C(=O)N1CC[C@H](N(C)c2nc(OC[C@@H]3CCCN3C)nc3c(F)c(-c4cccc5cccc(Cl)c45)ncc23)C1 [Example 26, methyl(E)-4-((S)-3-((7-(8-chloronaphthalen-1-yl)-8-fluoro-2-(((S)-1-methylpyrrolidin-2-yl)methoxy)pyrido[4,3-d]pyrimidin-4-yl)(methyl)amino)pyrrolidin-1-yl)-4-oxobut-2-enoate] | < 6.30 |
| CN(c1nc(OC[C@@]23CCCN2C[C@H](F)C3)nc2c(F)c(-c3cccc4ccc(F)c(Cl)c34)ncc12)[C@@H]1CCN(C(=O)/C=C/[C@H]2CCN2CC2COC2)C1 [Example 213, (E)-1-((R)-3-((7-(8-chloro-7-fluoronaphthalen-1-yl)-8-fluoro-2-(((2R,7aS)-2-fluorotetrahydro-1H-pyrrolizin-7a(5H)-yl)methoxy)pyrido[4,3-d]pyrimidin-4-yl)(methyl)amino)pyrrolidin-1-yl)-3-((R)-1-(oxetan-3-ylmethyl)azetidin-2-yl)prop-2-en-1-one] | 7.00 to 8.00 |
| CN(c1nc(OC[C@@]23CCCN2C[C@H](F)C3)nc2c(F)c(-c3cccc4cccc(Cl)c34)ncc12)[C@@H]1CCN(C(=O)C#CC2CCCN2)C1 (stereo partly drawn) [Example 59, 1-((R)-3-((7-(8-chloronaphthalen-1-yl)-8-fluoro-2-(((2R,7aS)-2-fluorotetrahydro-1H-pyrrolizin-7a(5H)-yl)methoxy)pyrido[4,3-d]pyrimidin-4-yl)(methyl)amino)pyrrolidin-1-yl)-3-(pyrrolidin-2-yl)prop-2-yn-1-one] | > 8.00 |
| CN(c1nc(OC[C@@]23CCCN2C[C@H](F)C3)nc2c1CCN(c1cccc3cccc(Cl)c13)C2)[C@@H]1CCN(C(=O)/C=C/c2nc(C3COC3)no2)C1 [Example 154, (E)-1-((R)-3-((7-(8-chloronaphthalen-1-yl)-2-(((2R,7aS)-2-fluorohexahydro-1H-pyrrolizin-7a-yl)methoxy)-5,6,7,8-tetrahydropyrido[3,4-d]pyrimidin-4-yl)(methyl)amino)pyrrolidin-1-yl)-3-(3-(oxetan-3-yl)-1,2,4-oxadiazol-5-yl)prop-2-en-1-one] | > 8.00 |
| C#Cc1c(F)ccc2cccc(-c3ncc4c(N(C)[C@@H]5CCN(C(=O)/C=C/CN6C[C@H]7C[C@@H]6CO7)C5)nc(OC[C@@]56CCCN5C[C@H](F)C6)nc4c3F)c12 [Example 290, (E)-4-((1R,4R)-2-oxa-5-azabicyclo[2.2.1]heptan-5-yl)-1-((R)-3-((7-(8-ethynyl-7-fluoronaphthalen-1-yl)-8-fluoro-2-(((2R,7aS)-2-fluorotetrahydro-1H-pyrrolizin-7a(5H)-yl)methoxy)pyrido[4,3-d]pyrimidin-4-yl)(methyl)amino)pyrrolidin-1-yl)but-2-en-1-one] | > 8.00 |
| Cc1ncc(F)c(/C=C/C(=O)N2CC[C@@H](N(C)c3nc(OCC45CCCN4CCC5)nc4c(F)c(-c5cccc6cccc(Cl)c56)ncc34)C2)n1 [Example 249, (R,E)-1-(3-((7-(8-chloronaphthalen-1-yl)-8-fluoro-2-((tetrahydro-1H-pyrrolizin-7a(5H)-yl)methoxy)pyrido[4,3-d]pyrimidin-4-yl)(methyl)amino)pyrrolidin-1-yl)-3-(5-fluoro-2-methylpyrimidin-4-yl)prop-2-en-1-one] | 7.00 to 8.00 |
| COCCN1CC[C@@H]1/C=C/C(=O)N1CC[C@@H](N(C)c2nc(OC[C@@]34CCCN3C[C@H](F)C4)nc3c(F)c(-c4cccc5cccc(Cl)c45)ncc23)C1 [Example 234, (E)-1-((R)-3-((7-(8-chloronaphthalen-1-yl)-8-fluoro-2-(((2R,7aS)-2-fluorotetrahydro-1H-pyrrolizin-7a(5H)-yl)methoxy)pyrido[4,3-d]pyrimidin-4-yl)(methyl)amino)pyrrolidin-1-yl)-3-((R)-1-(2-methoxyethyl)azetidin-2-yl)prop-2-en-1-one] | 7.00 to 8.00 |
| Cc1cc(/C=C/C(=O)N2CC(CN(C)c3nc(OC[C@@]45CCCN4C[C@H](F)C5)nc4c(F)c(-c5cccc6ccc(F)c(F)c56)ncc34)C2)nc(C)n1 [Example 274, (E)-1-(3-(((7-(7,8-difluoronaphthalen-1-yl)-8-fluoro-2-(((2R,7aS)-2-fluorotetrahydro-1H-pyrrolizin-7a(5H)-yl)methoxy)pyrido[4,3-d]pyrimidin-4-yl)(methyl)amino)methyl)azetidin-1-yl)-3-(2,6-dimethylpyrimidin-4-yl)prop-2-en-1-one] | 7.00 to 8.00 |

same assay, conditions: additional exemplary compounds; KRAS G12C and cRAF binding; read-out: RAF1 RBD IC50

| SMILES | pIC50 |
| --- | --- |
| C=CC(=O)N1CCC(N(c2nc(OCC34CCCN3CCC4)nc3c(F)c(-c4cccc5cccc(Cl)c45)ncc23)C2CC2)C1 (stereo not drawn) | < 6.30 |
| CN(C)C/C=C/C(=O)N1CC[C@@H](N(C)c2nc(OCC34CCCN3CCC4)nc3c2CCN(c2cccc4cccc(Cl)c24)C3)C1 | 7.00 to 8.00 |
| CN(C)C(=O)/C=C/C(=O)N1CC[C@@H](N(C)c2nc(OCC34CCCN3CCC4)nc3c(F)c(-c4cccc5cccc(Cl)c45)ncc23)C1 | < 6.30 |
| C=CC(=O)N1C[C@@H](F)[C@@H](N(C)c2nc(OC[C@@]34CCCN3C[C@H](F)C4)nc3c(F)c(-c4cccc5cccc(Cl)c45)ncc23)C1 | < 6.30 |
| CC(C)c1noc(/C=C/C(=O)N2C[C@H]3C[C@@H]2CN3c2nc(OC[C@@]34CCCN3C[C@H](F)C4)nc3c(F)c(-c4cccc5cccc(Cl)c45)ncc23)n1 | < 6.30 |
| C=CC(=O)N1C[C@@H](N(C)c2nc(OC[C@@H]3CCCN3C)nc3c(F)c(-c4cccc5cccc(Cl)c45)ncc23)C[C@@H]1CC#N | < 6.30 |
| C=CC(=O)N1C[C@H](N(C)c2nc(OC[C@@]34CCCN3C[C@H](F)C4)nc3c(F)c(-c4cccc5cccc(Cl)c45)ncc23)C[C@H]1CC#N | 7.00 to 8.00 |
| CN(c1nc(OCC23CCCN2CCC3)nc2c(F)c(-c3cccc4cccc(Cl)c34)ncc12)[C@@H]1CCN(C(=O)/C=C/c2cnccn2)C1 | < 6.30 |
| CN(C)C/C=C/S(=O)(=O)CCN(C)c1nc(OCC23CCCN2CCC3)nc2c1CCN(c1cccc3ccc(F)c(Cl)c13)C2 | > 8.00 |
| C=CS(=O)(=O)CCN(C)c1nc(OCC23CCCN2CCC3)nc2c(F)c(-c3cccc4cccc(Cl)c34)ncc12 | > 8.00 |
| C=CC(=O)CCOc1nc(OC[C@@H]2CCCN2C)nc2c1CCN(c1cccc3ccccc13)C2 | < 6.30 |
| C#Cc1c(F)ccc2cccc(-c3ncc4c(N(C)[C@@H]5CCN(C(=O)/C=C/c6ccncc6)C5)nc(OC[C@@]56CCCN5C[C@H](F)C6)nc4c3F)c12 | < 6.30 |
| N#CN1CC[C@H]2[C@H]1CCN2c1nc(OC[C@@]23CCCN2C[C@H](F)C3)nc2c(F)c(-c3cccc4cccc(Cl)c34)ncc12 | 6.30 to 7.00 |
